Reference: US20170050966A1, “INHIBITING THE TRANSIENT RECEPTOR POTENTIAL A1 ION CHANNEL” (HYDRA BIOSCIENCES, INC., priority 2014, published 2017)
≈ marks a conversion by molar mass, not a printed value. Like-named read-outs stand apart in the source and are kept apart here.

Tests used:
[1] = Solubility in Normal Ringer Solution; type: physicochemical; settings: aqueous buffer, kinetic from dmso stock, pH 7.4, room temperature
Experimental: Compounds of the invention were also tested for solubility in Normal Ringer Solution. […] Following vortex and incubation for 40 minutes at room temperature, solutions were filtered, quenched with acetonitrile, and analyzed by liquid chromatography. Solubility limits were determined by comparison to a standard curve. […] Solubility is reported as “greater than” if the observed increase between the last 2 dilutions tested is greater than 2-fold.

human TRPA1 (hTRPA1) = biological target: T1, human TRPA1 (hTRPA1) (Homo sapiens, UniProt O75762); assay: Inhibition of human TRPA1, whole-cell patch clamp; type: cell-based; settings: antagonist effect, whole cell patch configuration; read-out: hTRPA1
T1 construct: expressed in transfected cells
Experimental: Data for TRPA1 inhibition was obtained by this method for the indicated compounds of Formula (I), with the relevant data included in Table 14 below. All currents were recorded in whole-cell configuration using EPC-9 and EPC-10 amplifiers and Patchmaster software (HEKA). […] The standard pipette solution consisted of 140 mM CsAsp, 10 mM EGTA, 10 mM HEPES, […], 1.91 mM CaCl2, and up to 0.3 mM Na2GTP, with pH adjusted to 7.2 with CsOH. In addition, a solution containing 145 mM CsCl, 10 mM HEPES, 10 mM EGTA, and up to 0.3 mM Na2GTP and 1 mM MgCl2 (pH 7.2 adjusted with CsOH) can be used. The standard bath solution contained 150 mM NaCl, 10 mM HEPES, 10 mM glucose, 4.5 mM KCl, 1 mM EGTA, 3 mM MgCl2, with pH adjusted to 7.4 with NaOH. In some instances, 2 mM CaCl2 was added in place of EGTA and the concentration of MgCl2 was reduced to 1 mM.
Data were collected either by continuous recordings at −60 mV or by applying voltage ramps from a holding potential of 0 mV every 4 s. Continuous recordings were collected at 400 Hz and digitally filtered off-line at 10 Hz for presentation. Voltage ramps were applied from −100 mV to 100 mV over the course of 400 ms, and data were collected at 10 kHz and filtered at […]. Inward and outward currents were analyzed from the ramps at −80 and 80 mV, respectively. Liquid junction potential correction was not used.
Solutions were switched using a gravity-fed continuous focal perfusion system. To achieve rapid temperature changes, two temperature control, and perfusion systems were employed simultaneously. For temperatures greater than or equal to 22° C., a Warner Instruments bipolar temperature controller (TC-344B) and inline heater (SHM-8) were used. […] Temperatures were confirmed using a thermistor (Warner Instruments, TA-29), with temperatures at the recorded cell estimated to be within +/−2° C. of those reported.
The antagonist effects of compounds of Formula (I) against human TRPA1 (“hTRPA1”) in a whole cell patch configuration were evaluated using the in vitro assay protocol described above.

[2] = Metabolic stability in liver microsomes; type: in vitro ADME, human; settings: 1 μM test compound; for half-life at 1 μM: human, liver microsomes, 37° C.
Experimental: (§1) Metabolic stability of the compounds of Formula (I) was determined by standard liver microsome assays. Briefly, metabolic stability was tested by adding the compound to be tested dissolved in DMSO to human, dog, or rat liver microsomes. Assays were run with a starting concentration of 1 μM test compound. The reaction was initiated by addition of nicotinamide adenine dinucleotide phosphate[…] (NADPH) regeneration components at 37° C., at which time an aliquot was immediately quenched in an ice-cold acetonitrile/methanol/water solution. Reaction mixture was incubated at 37° C. on a shaker, and additional aliquots were taken at 7, 15, 30 and 60 minutes. Following quench and centrifugation, samples were analyzed on HPLC/MS/MS.

[3] = Metabolic stability in liver microsomes; type: in vitro ADME
Experimental: as §1

[4] = Oral bioavailability of solutions in non-fasted rats; settings: rat, in vivo, oral solution, read-out: Rat % F
Experimental: Early bioavailability studies in rat were conducted with solutions of the compounds of the invention. Compounds were delivered via oral administration as a solution in an appropriate excipient. Example formulations include, but are not limited to: 4% DMSO, 10% Solutol HS-15, and 86% water or 4% DMSO, 5% Tween, 25% Cremophor EL. Target concentrations were typically 1 mg/mL, and administered via oral gavage to non-fasted rats. The absolute bioavailability is the dose-corrected area under the curve (AUC) non-intravenous divided by the dose corrected AUC intravenous. The formula for calculating F for a drug administered by the oral route (PO) is given below:
% F=AUC PO×Dose IV/AUC IV×Dose PO

[5] = Kinetic solubility in buffered solutions; type: physicochemical; settings: aqueous buffer, kinetic from dmso stock, 24 hours ambient
Experimental: The solubilities of the compounds of Formula (I) were tested using the procedure outlined in Kerns, E. H., J Pharm Sci (2001) 90:1838-1858, incorporated herein by reference and described below. Data for solubility was obtained by this method for compounds of Formula (I) and included in Table 3. The chromatographic data was performed by HPLC using an Xbridge Shield RP18 column with the following column dimensions: 4.6×30 mm, 3.5 μm. The mobile phase consisted of deionized water (MPA) with trifluoroacetic acid added in at 0.1% (v/v) (MPC) and HPLC-grade acetonitrile (MPB). The mobile phase flow rate was 2.5 mL/min with the column and sampling operating at ambient temperature. UV detection was set to 280 nm.
Samples for analysis of the compounds of Formula (I) were prepared at a % v/v=1/19 (i.e., 10 μL of the stock solution into 190 μL of buffer) by spiking stock solutions of the compounds of Formula (I) into buffered solutions. Three buffered solution systems were prepared: pH 4.0 prepared from 50 mM sodium acetate in a 5% dextrose in water solution, pH 7.4 prepared from 75 mM sodium phosphate in a 1:1 ratio of sterilized water for injection to a 5% dextrose in water solution, and pH 9.0 prepared from 50 mM sodium bicarbonate in a 1:2 ratio of sterilized water for injection to a 5% dextrose in water solution. The samples were incubated on a microplate shaker at 300 rpm for 24 hours at ambient temperature. Following incubation, the samples were centrifuged for five minutes at 13 k rpm at ambient temperature. The resulting supernantant was extracted for HPLC analysis.

CYP2C8 = CYP2C8 (Homo sapiens, UniProt P10632); assay: in vitro; settings: probe Amodiaquine
CYP2B6 = CYP2B6 (Homo sapiens, UniProt P20813); assay: in vitro; settings: probe Buproprion
in vitro = settings: plasma
Experimental: With this method, free compound is separated from protein-bound compound by dialysis across a semi-permeable membrane.
The protein binding was tested at a concentration of 1 μM. Pooled human, cynomolgus monkey, dog, and rat K2EDTA plasma was thawed and centrifuged at 2000×g for 10 minutes at 4° C. to remove particulates; any lipid on the top of the supernatant was also removed by aspiration. The plasma was warmed to 37° C. for 10 minutes before use. Test compounds were spiked into 2 ml plasma in a polypropylene plate to a final concentration of 1 μM. Triplicate 400 μl aliquots of spiked plasma were transferred into the Thermo RED dialysis units and dialyzed against 600 μl of PBS buffer. […] After 6 hours dialysis, triplicate 50 μl aliquots were removed from the RED plate, matrix-matched with either PBS buffer or blank plasma, as appropriate, and quenched with 4 volumes of ACN containing an internal standard. The extracted samples were then centrifuged at 2000×g for 5 minutes at 4° C. The supernatant (50 μl) was removed and diluted with 100 μl water prior to LC/MS/MS bioanalysis.

[6] = dog liver microsomes, both sexes, read-out: Half-Life both sexes
[7] = rat liver microsomes, both sexes, read-out: Half-Life Both sexes
[8] = sodium acetate buffer, pH 4.0, 50 mM sodium acetate, read-out: pH 4.0 solubility
[9] = sodium bicarbonate buffer, pH 9.0, 50 mM sodium bicarbonate, read-out: pH 9.0 solubility
[10] = sodium phosphate buffer, pH 7.4, 75 mM sodium phosphate, read-out: pH 7.4 solubility
[11] = rat liver microsomes, male, read-out: Male Half-Life

T1 sequence (O75762 whole entry): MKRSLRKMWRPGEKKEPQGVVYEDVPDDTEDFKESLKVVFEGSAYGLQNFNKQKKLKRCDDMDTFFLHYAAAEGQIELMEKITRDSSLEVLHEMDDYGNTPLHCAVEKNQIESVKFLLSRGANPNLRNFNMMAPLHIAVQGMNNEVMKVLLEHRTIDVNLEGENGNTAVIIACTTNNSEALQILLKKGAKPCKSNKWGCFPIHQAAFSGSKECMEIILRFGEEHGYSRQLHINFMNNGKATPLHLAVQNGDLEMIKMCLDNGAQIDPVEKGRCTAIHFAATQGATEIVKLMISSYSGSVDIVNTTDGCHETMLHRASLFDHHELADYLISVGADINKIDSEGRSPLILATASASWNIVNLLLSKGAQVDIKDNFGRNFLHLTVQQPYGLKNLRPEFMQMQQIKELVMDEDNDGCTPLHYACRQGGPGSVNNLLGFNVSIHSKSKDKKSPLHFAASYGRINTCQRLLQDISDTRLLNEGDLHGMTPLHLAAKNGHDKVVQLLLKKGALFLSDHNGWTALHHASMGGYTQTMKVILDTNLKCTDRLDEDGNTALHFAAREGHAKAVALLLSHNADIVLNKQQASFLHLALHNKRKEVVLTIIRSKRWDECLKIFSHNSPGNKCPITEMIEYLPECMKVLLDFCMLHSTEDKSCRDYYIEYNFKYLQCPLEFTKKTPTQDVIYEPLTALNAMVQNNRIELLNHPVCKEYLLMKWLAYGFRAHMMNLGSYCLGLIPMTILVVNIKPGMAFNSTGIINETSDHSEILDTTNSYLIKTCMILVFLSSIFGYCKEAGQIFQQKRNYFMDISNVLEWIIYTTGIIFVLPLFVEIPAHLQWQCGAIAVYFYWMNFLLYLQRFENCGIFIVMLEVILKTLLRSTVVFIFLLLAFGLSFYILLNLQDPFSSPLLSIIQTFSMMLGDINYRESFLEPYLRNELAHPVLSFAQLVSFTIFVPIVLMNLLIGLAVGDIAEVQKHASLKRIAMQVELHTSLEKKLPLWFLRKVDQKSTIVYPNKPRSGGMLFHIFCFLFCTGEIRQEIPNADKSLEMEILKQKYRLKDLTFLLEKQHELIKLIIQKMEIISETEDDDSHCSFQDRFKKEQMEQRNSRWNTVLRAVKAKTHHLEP
CYP2C8, sequence (P10632 whole entry): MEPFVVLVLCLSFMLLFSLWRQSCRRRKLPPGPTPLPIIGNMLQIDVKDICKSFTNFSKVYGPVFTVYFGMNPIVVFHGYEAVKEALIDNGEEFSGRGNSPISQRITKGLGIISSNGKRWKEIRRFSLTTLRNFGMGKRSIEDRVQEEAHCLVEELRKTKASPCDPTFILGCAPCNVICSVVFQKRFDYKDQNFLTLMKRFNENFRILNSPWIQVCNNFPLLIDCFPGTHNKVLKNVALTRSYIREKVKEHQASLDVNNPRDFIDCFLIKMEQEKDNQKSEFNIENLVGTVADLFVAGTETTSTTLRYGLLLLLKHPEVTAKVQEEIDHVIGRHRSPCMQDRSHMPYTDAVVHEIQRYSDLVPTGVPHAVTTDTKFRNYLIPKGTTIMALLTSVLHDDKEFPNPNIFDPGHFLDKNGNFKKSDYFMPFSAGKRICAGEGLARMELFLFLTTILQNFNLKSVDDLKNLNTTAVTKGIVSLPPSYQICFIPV
CYP2B6, sequence (P20813 whole entry): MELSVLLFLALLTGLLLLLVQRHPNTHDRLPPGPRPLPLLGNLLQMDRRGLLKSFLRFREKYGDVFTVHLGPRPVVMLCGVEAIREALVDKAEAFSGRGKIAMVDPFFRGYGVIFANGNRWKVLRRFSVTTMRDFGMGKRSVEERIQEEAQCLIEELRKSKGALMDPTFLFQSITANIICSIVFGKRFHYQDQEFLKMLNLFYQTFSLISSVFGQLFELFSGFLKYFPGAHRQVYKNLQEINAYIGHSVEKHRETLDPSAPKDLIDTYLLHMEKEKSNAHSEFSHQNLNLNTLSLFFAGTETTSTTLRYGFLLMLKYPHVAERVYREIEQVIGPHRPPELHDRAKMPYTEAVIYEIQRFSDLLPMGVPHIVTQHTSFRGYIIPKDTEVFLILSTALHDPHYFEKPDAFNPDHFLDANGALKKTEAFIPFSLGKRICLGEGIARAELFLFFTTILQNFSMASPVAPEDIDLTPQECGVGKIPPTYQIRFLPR

SMILES	solubility at 40 min [1] [µM]	IC50 (human TRPA1 (hTRPA1)) [µM]	half-life at 1 μM [2] [min]	half-life at 1 μM [3, 7] [min]	also measured
C[C@@H](C(=O)Nc1ccnc(-c2cnc(N3CCC[C@H]3C(F)(F)F)nc2)n1)n1cnc2[nH]c(=O)n(C)c(=O)c21 [Compound 5, (S)-2-(1-methyl-2,6-dioxo-2,3-dihydro-1H-purin-7(6H)-yl)-N-(2′-((S)-2-(trifluoromethyl)pyrrolidin-1-yl)-[2,5′-bipyrimidin]-4-yl)propanamide]	4.37 (≈ 2.32 µg/mL)	0.663	37.8	113	half-life at 1 μM [3, 6]: > 120 min
C[C@@H](C(=O)Nc1ccnc(-c2cnc(N3CCC[C@H]3C(F)(F)F)nc2)n1)n1cnc2c1c(=O)n(C)c(=O)n2C(F)F [Compound 6, (S)-2-(3-(difluoromethyl)-1-methyl-2,6-dioxo-2,3-dihydro-1H-purin-7(6H)-yl)-N-(2′-((S)-2-(trifluoromethyl)pyrrolidin-1-yl)-[2,5′-bipyrimidin]-4-yl)propanamide]	~23 (≈ 13.4 µg/mL)	0.0297	27.4	118	
C[C@@H](C(=O)Nc1ccnc(-c2cnc(N3CC(C(F)(F)F)C3)nc2)n1)n1cnc2c1c(=O)n(C)c(=O)n2C [Compound 13, (S)-2-(1,3-dimethyl-2,6-dioxo-2,3-dihydro-1H-purin-7(6H)-yl)-N-(2′-(3-(trifluoromethyl)azetidin-1-yl)-2,5′-bipyrimidin-4-yl)propanamide]	> 77.6	0.0629	> 60	60	
C[C@@H](C(=O)Nc1ccnc(-c2cnc(N3CC4CC4C3)nc2)n1)n1cnc2c1c(=O)n(C)c(=O)n2C (stereo partly drawn) [Compound 15, (2S)—N-(2′-(3-azabicyclo[3.1.0]hexan-3-yl)-2,5′-bipyrimidin-4-yl)-2-(1,3-dimethyl-2,6-dioxo-2,3-dihydro-1H-purin-7(6H)-yl)propanamide]	16.3 (≈ 7.96 µg/mL)	0.0267	88.8	72.7	bioavailability [4]: 35%
C[C@@H](C(=O)Nc1ccnc(-c2cnc(N3CCC(C(F)(F)F)C3)nc2)n1)n1cnc2c1c(=O)n(C)c(=O)n2C (stereo partly drawn) [Compound 16, (2S)-2-(1,3-dimethyl-2,6-dioxo-2,3-dihydro-1H-purin-7(6H)-yl)-N-(2′-(3-(trifluoromethyl)pyrrolidin-1-yl)-2,5′-bipyrimidin-4-yl)propanamide]	> 47	0.0249	52.4		
C[C@H]1CCCN1c1ncc(-c2nccc(NC(=O)Cn3cnc4c3c(=O)n(C)c(=O)n4C)n2)cn1 [Compound 19, (S)-2-(1,3-dimethyl-2,6-dioxo-2,3-dihydro-1H-purin-7(6H)-yl)-N-(2′-(2-methylpyrrolidin-1-yl)-2,5′-bipyrimidin-4-yl)acetamide]	> 18.2	0.0961	50	63.8	solubility kinetic at 24 h [5, 8]: 6 µg/mL (≈ 12.6 µM); solubility kinetic at 24 h [5, 9]: 3.5 µg/mL (≈ 7.35 µM); solubility kinetic at 24 h [5, 10]: 10 µg/mL (≈ 21 µM); Human Liver Microsomes Hepatic Clearance [2]: 9 mL/min/kg; Hepatic Clearance ([3]; dog liver microsomes): 11 mL/min/kg; half-life at 1 μM [3, 6]: 44 min; Male Hepatic Clearance ([3]; rat liver microsomes, male): 25 mL/min/kg; half-life at 1 μM [3, 11]: 36 min; bioavailability [4]: 77%
C[C@H]1CCCN1c1ncc(-c2nccc(NC(=O)[C@H](C)n3cnc4c3c(=O)n(C)c(=O)n4C)n2)cn1 [Compound 21, (S)-2-(1,3-dimethyl-2,6-dioxo-2,3-dihydro-1H-purin-7(6H)-yl)-N-(2′-((S)-2-methylpyrrolidin-1-yl)-[2,5′-bipyrimidin]-4-yl)propanamide]		0.051	30		solubility kinetic at 24 h [5, 8]: 34 µg/mL (≈ 69.3 µM); solubility kinetic at 24 h [5, 9]: 10.5 µg/mL (≈ 21.4 µM); solubility kinetic at 24 h [5, 10]: 20 µg/mL (≈ 40.8 µM); Human Liver Microsomes Hepatic Clearance [2]: 10.5 mL/min/kg; Female Hepatic Clearance ([3]; dog liver microsomes, female): 8 mL/min/kg; half-life at 1 μM ([3]; dog liver microsomes, female, read-out: Female Half-Life): 66 min; Hepatic Clearance ([3]; rat liver microsomes): 11 mL/min/kg; Male Hepatic Clearance ([3]; rat liver microsomes, male): 34 mL/min/kg; half-life at 1 μM [3, 11]: 16 min
C[C@@H](C(=O)Nc1ccnc(-c2cnc(N3CC4C(C3)C4(F)F)nc2)n1)n1cnc2c1c(=O)n(C)c(=O)n2C (some centres unmarked) [Compound 26]	> 15.1				
O=c1c(O)c(-c2ccc(O)c(O)c2)oc2cc(O)cc(O)c12 [Quercetin, reference compound]					inhibition at 10 µM (CYP2C8): 61.5%
Clc1ccccc1CN1CCc2sccc2C1 [Ticlopidine, reference compound]					inhibition at 10 µM (CYP2B6): 98.2%
CC(=O)CC(c1ccccc1)c1c(O)c2ccccc2oc1=O (centres unmarked) [Warfarin, reference compound]					fraction unbound at 6 h, 1 μM (in vitro; beagle, dog): 0.065; fraction unbound at 6 h, 1 μM (in vitro; cynomolgus monkey): 0.011
